{"source": "patent US7276514B2", "about": "“Pyrroloquinoline quinone drugs for treatment of cardiac injury and methods of use thereof” (Charitable Leadership Foundation - Medical Technology …, priority 2002, dated 2007)", "key": {"cardiac myocytes": {"tested_on": "cardiac myocytes", "experiment": "Cultured cardiac myocytes subjected to oxidative stress by H2O2", "type": "cell-based", "method": "Cultured cardiac myocytes are subjected to oxidative stress by in vitro administration of H2O2. Two studies are done, one in which PQQ is added in concentrations between 10 nM and less than 10 μM to cardiac myocytes, after which H2O2 is added. In the other study, cardiac myocytes are subjected to insult in vitro admininstration of H2O2 for two hours, after which PQQ is added in concentrations between 10 nM and less than 10 μM. In both studies, PQQ is found to be protective."}, "isolated mouse heart [1]": {"tested_on": "isolated mouse heart", "experiment": "Ex vivo isolated mouse heart (Langendorff), 20 min ischemia followed by 30 min reperfusion", "method": "Ex vivo studies were performed using an isolated mouse heart preparation employing the Langendorff technique. In this approach, the heart is removed and mounted on a perfusion apparatus in which drugs can be given via an aortic cannula. The heart is paced at a constant rate, and left ventricular developed pressure [LVDP; left ventricular systolic pressure minus left ventricular end-diastolic pressure], left ventricular end-diastolic pressure [LVEDP], and the maximum positive and negative first derivatives of left ventricular pressure [+dP/dtmax and −dP/dtmax] are recorded. The heart is equilibrated for 20 min. After drug or vehicle is infused, the heart is subjected to 20 min of ischemia [coronary flow completely stopped] followed by 30 min of reperfusion. Coronary sinus flow as a reflection of coronary blood flow is also measured. This protocol leads to severe myocardial injury as measured by hemodynamic parameters."}, "[2]": {"tested_on": "adult mouse cardiac myocytes", "experiment": "Toxicity of PQQ to cultured adult mouse cardiac myocytes under normoxic conditions", "type": "cell-based", "conditions": "100 μM PQQ", "method": "The invention encompasses methods of treating or preventing cardiac injury caused by hypoxia or ischemia in a subject, wherein PQQ is administered to a subject in need thereof, such that hypoxia or ischemic-related injury is prevented or decreased. In certain embodiments, the PQQ is administered at a concentration of less than about 10 μM. In other embodiments, the PQQ is administered at a concentration in the range of about 10 nM to about 10 μM, about 10 nM to about 1 μM, 100 nM to about 10 μM, and 100 nM to about 500 nM. In still other embodiments of the invention, the PQQ is administered at a concentration such that the concentration of PQQ at the site of cardiac tissue is in the range of 10 nM to about 10 μM. PQQ may also be administered as a function of the subject's body weight. In some embodiments of the invention, PQQ is administered at a concentration of between about 1 μg/kg to 1 g/kg of a subject's body weight, including less than 500 mg/kg, 250 mg/kg, 100 mg/kg, 10 mg/kg, 5 mg/kg, 2 mg/kg, 1 mg/kg, 500 μg/kg, 250 μg/kg, 100 μg/kg, 10 μg/kg, 5 μg/kg, 2 μg/kg or 1 μg/kg. […]\nAn in vitro model of cultured adult cardiac mouse myocytes was developed to study cardioprotection by PQQ. […] These cells can be used readily for determination of cell viability by trypan blue exclusion, and for biochemical, immunochemical, and molecular studies. […]"}, "[3]": {"tested_on": "adult cardiac mouse myocytes", "experiment": "Cultured adult cardiac mouse myocytes exposed to severe hypoxia, viability by trypan blue exclusion", "type": "cell-based", "method": "An in vitro model of cultured adult cardiac mouse myocytes was developed to study cardioprotection by PQQ. These cells are viable in culture for up to 48 hours at a physiologic pH and consist of >90% rod-shaped cells. These cells can be used readily for determination of cell viability by trypan blue exclusion, and for biochemical, immunochemical, and molecular studies. In this model, approximately 35% of the cells die when exposed to 0% oxygen in a hypoxia chamber for 2-3 hours. […] A higher concentration of PQQ (100 μM) is highly toxic under normoxic conditions as evidenced by 100% cell death."}, "isolated mouse heart [4]": {"tested_on": "isolated mouse heart", "experiment": "Ex vivo isolated mouse heart (Langendorff), 20 min ischemia followed by 30 min reperfusion", "conditions": "100 nM PQQ given at the time of onset of reperfusion"}, "[5]": {"conditions": "100 nM PQQ infused for 2 minutes prior to ischemia"}}, "note": "“Also recorded” adds a separate entry of the source.", "data": [{"smiles": "O=C(O)c1cc(C(=O)O)c2c(n1)C(=O)C(=O)c1cc(C(=O)O)[nH]c1-2", "note": "[PQQ, Pyrroloquinoline quinone]", "values": [{"measurement": "protection of cardiac myocytes against H2O2 oxidative stress", "setting": "cardiac myocytes; PQQ between 10 nM and less than 10 μM added after two hours of H2O2", "result": "protective"}, {"measurement": "protection of cardiac myocytes against H2O2 oxidative stress", "setting": "cardiac myocytes; PQQ between 10 nM and less than 10 μM added before H2O2", "result": "protective"}, {"measurement": "+dP/dtmax", "setting": "isolated mouse heart [1]; [5]", "result": "track the LVDP results"}, {"measurement": "left ventricular developed pressure (LVDP)", "setting": "isolated mouse heart [1]; [5]", "result": "significant preservation; also recorded: preserves"}, {"measurement": "left ventricular end-diastolic pressure (LVEDP)", "setting": "isolated mouse heart [1]; [5]", "result": "preserves"}, {"measurement": "−dP/dtmax", "setting": "isolated mouse heart [1]; [5]", "result": "track the LVDP results"}, {"measurement": "toxicity (FIG. 8)", "setting": "isolated mouse heart [1]; 2 min pretreatment, 10 μM PQQ", "result": "toxicity occurs"}, {"measurement": "hemodynamic response (FIG. 8)", "setting": "isolated mouse heart [1]; 2 min pretreatment, PQQ between 10 nM and 1 μM", "result": "progressively favorable responses"}, {"measurement": "infarct size", "setting": "isolated mouse heart [1]; PQQ pretreatment at 10 μM", "result": "not reduced"}, {"measurement": "infarct size", "setting": "isolated mouse heart [1]; PQQ pretreatment between 10 nM and 1 μM", "result": "progressive reduction"}, {"measurement": "coronary flow", "setting": "isolated mouse heart [1]; PQQ pretreatment compared to control", "result": "significantly improved"}, {"measurement": "toxicity to cultured adult mouse cardiac myocytes", "setting": "[2]", "result": "highly toxic; also recorded: observed"}, {"measurement": "cell death", "setting": "[2]; normoxic conditions", "result": 100, "unit": "%"}, {"measurement": "proportion of viable cells (trypan blue exclusion) after hypoxia", "setting": "[3]; 1 μM PQQ added 1 hour before severe hypoxia (0% oxygen for 2-3 hours)", "result": "significant increase"}, {"measurement": "PQQ protection against hypoxia-induced cell death in presence of mitochondrial KATP channel inhibitor", "setting": "[3]; 1 μM PQQ with 100 μM 5-hydroxydecanoic acid", "result": "not inhibited"}, {"measurement": "PQQ protection in presence of mitochondrial KATP channel inhibitor (FIG. 2 legend)", "setting": "[3]; 10 μM 5-hydroxydecanoic acid", "result": "not inhibited"}, {"measurement": "hemodynamic response when given at onset of reperfusion (PQQ tre.)", "setting": "isolated mouse heart [4]", "result": "equivalent to pretreatment"}]}]}
